In series [1] the target is T1, LAT1 (Mus musculus, UniProt Q9Z127).
T1 construct: mouse primary astrocytes, from which we have recently characterized LAT1 expression and function; endogenous in cells; host or cells: mouse primary astrocytes (cortex and hippocampi of 2-day-old wild-type and APP/PS1 mice)
Briefly: Ability to bind LAT1: inhibition of [14C]-L-leucine uptake in mouse primary astrocytes. It is filed as cell-based. To be noted: mean ± SD; for IC50: n = 3-4, read-out: IC50 in astrocytes (LAT1-probe substrate [14C]-L-leucine uptake). How it is done:
For the transporter binding studies, the astrocytes were seeded on 24-well plates with a density of 10 × 10^4 cells/well three days before the experiments. After removal of the culture medium, the cells were carefully washed with prewarmed HBSS (Hank's balance salt solution) containing choline chloride (125 mM), KCl (4.8 mM), MgSO4 (1.2 mM), KH2PO4 (1.2 mM), CaCl2 (1.3 mM), glucose (5.6 mM), and HEPES (25 mM) adjusted to pH 7.4 with 1 M NaOH. The cells were preincubated with 500 μL of prewarmed HBSS at 37°C for 10 min before the experiments. To study the ability of studied compounds to inhibit the uptake of a known LAT1 substrate, the cells were incubated at 37°C for 5 min with an uptake buffer (HBSS, 250 μL) containing 0.76 μM (0.25 mCi/mL or 9.85 MBq/mL) of [^14C]-L-leucine (PerkinElmer, Inc., Waltham, MA, USA) and 0.1-1000 μM of studied compound (or HBSS as blank). After incubation, the uptake was stopped by adding 500 μL of ice-cold HBSS and the cells were washed two times with ice-cold HBSS. The cells were then lysed with 500 μL of NaOH (0.1 M) for 60 min, and the lysate was mixed with 3.5 mL of Emulsifier safe cocktail (Ultima Gold, PerkinElmer, Inc., Waltham, MA, USA). The radioactivity in the cells was measured by liquid scintillation counting (MicroBeta^2 counter, PerkinElmer, Inc., Waltham, MA, USA). Half of maximum inhibitory concentration (IC50) values were calculated by nonlinear regression analysis (fitting the curve to log (concentration) vs. remaining normalized […]).

Series [2] can be described thus: in vitro. The class given is in vitro ADME. To be noted: mouse; for fraction unbound at 4 h, 10 μM: C57BL/6J. How it is done:
The unbound fraction of FA and its derivatives 1-2 was determined at 10 μM in cell homogenate by using a Rapid Equilibrium Dialysis (RED) device (Thermo Fisher Scientific, Inc., Waltham, MA, USA). Briefly, the cell homogenate was prepared from astrocyte cell suspension (10 × 10^6 cells/mL) in HBSS with a SoniPerp 150 Plus disintegrator (MSE Ltd., London, UK) for 2 s × 3. 100 μL of cell homogenate spiked with the studied compound was added to the reaction chamber, and 350 μL of HBSS buffer was added to the buffer chamber of the RED plate. The dialysis plate was incubated at 37°C for 4 h with shaking. 50 μL of samples was taken from the reaction, and buffer chambers and equal size of buffer or blank homogenate were added, respectively, to yield identical matrices. The proteins were precipitated by adding 100 μL of ice-cold ACN (including the selected internal standard; […]

Series [3] concerns primary astrocytes. Briefly: Astrocyte cell growth / viability (resazurin). To be noted: for Effect on astrocyte viability at low concentrations: 5-100 μM, 72 h; for Concentrations with significant antiproliferative efficacy on astrocytes: 72 h incubation, 5-400 μM. The class given is cell-based. How it is done:
Primary astrocytes were seeded at the density of 10 × 10^3 cells/well onto collagen-coated 96-well plates. The cells were used for the proliferation experiments one day after seeding. Concentrations of 5-400 μM FA or its LAT1-utilizing derivatives 1-3 were added into the growth medium and incubated for 3 days. Each day, the cell viability was determined by resazurin cell proliferation kit (Sigma, St. Louis, MO, USA), which is directly proportional to aerobic respiration and cellular metabolism of cells. The samples were measured fluorometrically by monitoring the increase in fluorescence at λex 560 nm and λem 590 nm (EnVision, PerkinElmer, Inc., Waltham, MA, USA). The cell viability was also followed by visualizing the wells with microscopy. The ability of compounds to inhibit the viability of the cells was expressed as percentages (%) compared to the untreated controls.

In series [4] the target is T2, purified human BACE1 (Homo sapiens, UniProt P56817).
T2 construct: purchased AnaSpec, Inc., Fremont, CA, USA SensoLyte 520 BACE1 Assay kit (catalogue number not given)
Briefly: BACE1 FRET inhibition assay (SensoLyte 520). The note with it: 1 and 10 μM; 30 min. The class given is biochemical. From the text:
A fluorometric assay was used to screen the inhibitory effect of the studied compounds on purified human BACE1 using a fluorescence resonance energy transfer (FRET) peptide technique (SensoLyte© 520 BACE1 Assay kit, AnaSpec, Inc., Fremont, CA, USA) according to the manufacturer's protocol. […] The sequence of the FRET peptide has been derived from the β-secretase cleavage site of β-amyloid precursor protein (APP) with Swedish mutation, which enhances β-secretase to process APP resulting in an early onset of AD. Thus, active β-secretase cleaved FRET substrate into two separate fragments resulting in the release of HiLyte™ Fluor 488 fluorescence that was measured by the EnVision plate reader (EnVision, PerkinElmer, Inc., Waltham, MA, USA) at λex 490 nm and λem 520 nm. […] The results were reported as percentages (%), with control sample representing 100% β-secretase activity.

Series [5] deals with T3, butyrylcholinesterase (BChE) (Mus musculus, UniProt Q03311).
T3 construct: mouse brain S9 fraction was prepared by homogenizing freshly collected mouse brain; from tissue; host or cells: mouse brain S9 fraction (9 000 x g supernatant)
Briefly: biochemical. It is filed as biochemical. To be noted: mouse brain S9 subcellular fraction, 30 min end point, mean ± SD, n = 3; for IC50: read-out: BuChE IC50 value. The protocol: Briefly, mouse brain S9 fraction was prepared by homogenizing freshly collected mouse brain with 50 mM Tris-buffered saline (TBS) (pH 7.4) (1 : 4, w/v), centrifuging the homogenate at 9 000 × g for 20 min at 4°C and collecting the supernatant. The supernatant was then diluted at 1 : 10 with phosphate-buffered saline (100 mM; pH 7.0) and mixed with Ellman's reagent (5,5′-dithiobis-(2-nitrobenzoic acid); DTNB; 1 mM) and studied compounds in DMSO (DMSO concentration was less than 0.5%) on a 96-well plate as 3 parallel assays.

[6] abbreviates: 10 μM in astrocyte cell homogenate, mean ± SD, n = 3, read-out: Unbound fraction fu,cell.

Values joined by “and” are separate entries in the source; they are usually repeats but may differ in a detail not shown here. Equal values may be shown once. Read-outs that look alike come from different tables or passages of the source.

This is an account of results in paper PMC6877910, “Astrocyte-Targeted Transporter-Utilizing Derivatives of Ferulic Acid Can Have Multifunctional Effects Ameliorating Inflammation and Oxidative Stress in the Brain” (Oxidative Medicine and Cellular Longevity, 2019).

T1 sequence (Q9Z127 whole entry): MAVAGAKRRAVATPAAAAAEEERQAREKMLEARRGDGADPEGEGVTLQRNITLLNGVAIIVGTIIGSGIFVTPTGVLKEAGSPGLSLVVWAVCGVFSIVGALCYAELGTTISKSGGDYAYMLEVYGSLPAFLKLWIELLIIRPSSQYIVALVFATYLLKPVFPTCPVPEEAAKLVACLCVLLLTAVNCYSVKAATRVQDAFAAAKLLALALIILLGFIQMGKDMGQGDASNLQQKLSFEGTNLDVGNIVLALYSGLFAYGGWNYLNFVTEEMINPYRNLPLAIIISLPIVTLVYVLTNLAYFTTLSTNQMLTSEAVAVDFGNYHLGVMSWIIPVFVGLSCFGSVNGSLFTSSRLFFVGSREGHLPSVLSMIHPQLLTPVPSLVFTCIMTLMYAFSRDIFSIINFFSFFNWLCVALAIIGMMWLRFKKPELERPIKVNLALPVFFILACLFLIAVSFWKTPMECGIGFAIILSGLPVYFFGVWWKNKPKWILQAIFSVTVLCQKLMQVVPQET
T1 sequence (P10852 whole entry partner): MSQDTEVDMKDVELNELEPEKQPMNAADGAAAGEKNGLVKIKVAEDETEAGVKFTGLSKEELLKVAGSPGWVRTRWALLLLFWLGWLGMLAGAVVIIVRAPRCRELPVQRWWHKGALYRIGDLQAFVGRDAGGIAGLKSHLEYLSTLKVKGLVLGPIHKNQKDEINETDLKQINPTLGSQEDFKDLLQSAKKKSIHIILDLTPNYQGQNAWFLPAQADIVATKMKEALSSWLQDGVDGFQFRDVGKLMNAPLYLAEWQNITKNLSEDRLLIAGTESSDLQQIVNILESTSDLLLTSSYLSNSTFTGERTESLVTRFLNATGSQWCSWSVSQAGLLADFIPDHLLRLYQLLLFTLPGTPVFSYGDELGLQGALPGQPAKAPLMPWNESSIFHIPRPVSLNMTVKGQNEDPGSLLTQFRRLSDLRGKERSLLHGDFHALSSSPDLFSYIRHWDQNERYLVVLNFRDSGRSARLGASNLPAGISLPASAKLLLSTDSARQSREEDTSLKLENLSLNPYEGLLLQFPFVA
T2 sequence (P56817 46-501): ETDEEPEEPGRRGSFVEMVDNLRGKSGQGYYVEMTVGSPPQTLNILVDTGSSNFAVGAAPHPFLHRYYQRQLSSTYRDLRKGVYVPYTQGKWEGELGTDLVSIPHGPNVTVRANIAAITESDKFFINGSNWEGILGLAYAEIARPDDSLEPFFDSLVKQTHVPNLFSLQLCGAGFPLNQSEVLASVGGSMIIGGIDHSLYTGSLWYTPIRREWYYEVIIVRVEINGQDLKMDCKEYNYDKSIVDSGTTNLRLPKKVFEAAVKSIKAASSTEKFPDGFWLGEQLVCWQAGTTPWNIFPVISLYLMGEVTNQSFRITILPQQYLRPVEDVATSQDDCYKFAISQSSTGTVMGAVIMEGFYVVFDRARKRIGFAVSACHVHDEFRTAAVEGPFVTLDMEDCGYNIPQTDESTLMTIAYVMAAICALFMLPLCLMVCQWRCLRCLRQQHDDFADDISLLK
T3 sequence (Q03311 30-603): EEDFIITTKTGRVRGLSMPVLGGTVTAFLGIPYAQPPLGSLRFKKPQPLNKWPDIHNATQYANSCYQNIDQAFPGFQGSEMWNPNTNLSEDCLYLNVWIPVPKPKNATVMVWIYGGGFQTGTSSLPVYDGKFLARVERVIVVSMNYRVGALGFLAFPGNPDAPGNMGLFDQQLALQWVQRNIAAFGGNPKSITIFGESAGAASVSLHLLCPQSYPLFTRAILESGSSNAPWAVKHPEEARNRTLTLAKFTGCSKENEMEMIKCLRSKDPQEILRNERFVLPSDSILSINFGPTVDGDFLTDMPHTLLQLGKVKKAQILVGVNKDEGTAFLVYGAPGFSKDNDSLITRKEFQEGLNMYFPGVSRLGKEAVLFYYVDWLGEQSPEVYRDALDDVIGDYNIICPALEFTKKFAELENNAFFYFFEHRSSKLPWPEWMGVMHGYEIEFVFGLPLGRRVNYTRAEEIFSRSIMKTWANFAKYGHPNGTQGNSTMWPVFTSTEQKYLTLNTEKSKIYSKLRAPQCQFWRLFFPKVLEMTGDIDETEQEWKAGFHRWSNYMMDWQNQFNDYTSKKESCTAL

Turning to `COc1cc(C=CC(=O)Nc2cccc(CC(N)C(=O)O)c2)ccc1O` (centres unmarked) [FA-derivative 2], the IC50 in series [1] was found to be 8.9 ± 1.25 µM. Besides, the fraction unbound at 4 h, 10 μM in series [2] (setting [6]) was 0.0806 ± 0.0054. In series [3], the “Effect on astrocyte viability at low concentrations” value (“Effect on astrocyte viability” for short) was “increased the viability” and the “Concentrations with significant antiproliferative efficacy on astrocytes” value was “above 200 μM”. Further, the BACE1 inhibition in series [4] was 91–97%. In addition, the “BuChE IC50 value” in series [5] is “No inhibition”.

`COc1cc(C=CC(=O)Oc2cccc(CC(N)C(=O)O)c2)ccc1O` (centres unmarked) [FA-derivative 3]: the IC50 in series [1] came to 28.7 ± 1.15 µM; in series [5], 236.1 ± 1.26 µM. Also, the “Concentrations with significant antiproliferative efficacy on astrocytes” value in series [3] is reported as “above 200 μM”. Moreover, the BACE1 inhibition in series [4] is recorded as 81–91%.

As to `COc1cc(C=CC(=O)NCc2cccc(CC(N)C(=O)O)c2)ccc1O` (centres unmarked) [FA-derivative 1], the IC50 in series [1] is 2.2 µM and 2.15 µM. Further, the free fraction (fraction unbound) at 4 h, 10 μM in series [2] (setting [6]) amounted to 0.163 ± 0.0272. In series [3], the “Effect on astrocyte viability” value is on record as “increased the viability” and the “Concentrations with significant antiproliferative efficacy on astrocytes” value is on record as “above 200 μM”. The BACE1 inhibition in series [4] is on record as 78–91%. Further, the half-inhibitory concentration (IC50) in series [5] came to 220.8 ± 1.14 µM.

Regarding `COc1cc(/C=C/C(=O)O)ccc1O` [FA, trans-4-hydroxy-3-methoxycinnamic acid, reference compound], the “IC50 in astrocytes (LAT1-probe substrate [14C]-L-leucine uptake)” value in series [1] (n = 3-4) is “No inhibition”. Also, in series [2] (tissue homogenate), the fraction unbound at 4 h, 10 μM is 1 and the “Unbound fraction fu,cell” value is on record as “Fully unbound”. In addition, in series [3], the “Effect on astrocyte viability” value was “increased the viability” and the “Concentrations with significant antiproliferative efficacy on astrocytes” value is “above 200 μM”. Also, the BACE1 inhibition in series [4] is recorded as roughly 97%. In addition, the “BuChE IC50 value” in series [5] is recorded as “No inhibition”.
